Laboratory results reported in patent publication US12264156B2, “Compounds and pharmaceutical compositions thereof for the treatment of diseases” (GALAPAGOS NV, priority 2018, dated 2025).

Target: T1, SIK1 (Homo sapiens, UniProt P57059)
T1 construct: purchased Carna Biosciences 02-131
Assay: ADP-Glo kinase assay, SIK1
Type: biochemical
Conditions: ADP-Glo SIK kinase assay
Method in brief: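 ADP-Glo, RT throughout. Enz/substrate + ATP, 120 min; ADP-Glo reagent 40 min (ATP depletion); detection reagent 30 min; luminescence read. Neg ctrl 1% DMSO, pos ctrl 10 μM staurosporine, final concs.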

T1 sequence (P57059 whole entry): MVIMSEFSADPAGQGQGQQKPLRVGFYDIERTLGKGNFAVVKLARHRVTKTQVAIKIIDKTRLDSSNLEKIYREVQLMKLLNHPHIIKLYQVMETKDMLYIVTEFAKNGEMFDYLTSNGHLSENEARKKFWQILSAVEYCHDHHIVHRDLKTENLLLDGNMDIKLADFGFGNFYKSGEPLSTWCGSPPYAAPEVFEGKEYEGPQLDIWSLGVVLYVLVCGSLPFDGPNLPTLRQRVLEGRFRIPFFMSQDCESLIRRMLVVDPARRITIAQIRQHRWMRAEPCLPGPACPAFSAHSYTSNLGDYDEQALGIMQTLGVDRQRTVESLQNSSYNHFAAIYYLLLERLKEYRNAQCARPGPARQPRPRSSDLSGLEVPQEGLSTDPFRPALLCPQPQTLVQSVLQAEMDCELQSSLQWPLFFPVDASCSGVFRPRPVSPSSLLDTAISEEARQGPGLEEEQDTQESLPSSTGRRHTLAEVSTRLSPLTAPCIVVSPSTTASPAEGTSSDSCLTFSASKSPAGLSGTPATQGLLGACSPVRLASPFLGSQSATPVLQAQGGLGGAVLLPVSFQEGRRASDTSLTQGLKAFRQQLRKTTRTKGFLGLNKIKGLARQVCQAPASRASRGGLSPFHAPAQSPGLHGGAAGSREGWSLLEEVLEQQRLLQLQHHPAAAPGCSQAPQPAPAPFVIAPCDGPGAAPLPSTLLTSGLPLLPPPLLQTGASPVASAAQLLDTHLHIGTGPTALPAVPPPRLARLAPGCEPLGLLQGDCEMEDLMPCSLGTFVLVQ

Row | IC50 | SMILES
1 | 10 to 100 nM | COc1cc(-c2cnc3cc(OCC(O)CN4CCOCC4)ccn23)cc(OC(F)F)c1C(=O)NC1CC1 (single isomer, unassigned) [Cpd 386, N-cyclopropyl-2-(difluoromethoxy)-4-[7-(2-hydroxy-3-morpholino-propoxy)imidazo[1,2-a]pyridin-3-yl]-6-methoxy-benzamide]
2 | 10 to 100 nM | COc1cc(-c2cnc3cc(OCC(O)CN4CCOCC4)ccn23)cc(OC(F)F)c1C(=O)NC1CC1 (single isomer, unassigned) [Cpd 387, N-cyclopropyl-2-(difluoromethoxy)-4-[7-(2-hydroxy-3-morpholino-propoxy)imidazo[1,2-a]pyridin-3-yl]-6-methoxy-benzamide]
3 | 100 to 500 nM | COc1cc(-c2cnc3cc(OCCN(C)C)ccn23)cc(OC(F)F)c1C(=O)NC1CC1 [Cpd 6, N-cyclopropyl-2-(difluoromethoxy)-4-[7-[2-(dimethylamino)ethoxy]imidazo[1,2-a]pyridin-3-yl]-6-methoxy-benzamide]
4 | 10 to 100 nM | COc1cc(-c2cnc3cc(OCCCN(C)C)ccn23)cc(OC(F)F)c1C(=O)NC1CC1 [Cpd 13]
5 | 10 to 100 nM | COc1cc(-c2cnc3cc(OCC4CN(C)C4)ccn23)cc(OC(F)F)c1C(=O)NC1CC1 [Cpd 14, N-cyclopropyl-2-(difluoromethoxy)-6-methoxy-4-[7-[(1-methylazetidin-3-yl)methoxy]imidazo[1,2-a]pyridin-3-yl]benzamide]
6 | > 500 nM | COc1cc(-c2cnc3cc(OC(C)(C)CO)ccn23)cc(OC(F)F)c1C(=O)NC1CC1 [Cpd 209, N-cyclopropyl-2-(difluoromethoxy)-4-[7-(2-hydroxy-1,1-dimethyl-ethoxy)imidazo[1,2-a]pyridin-3-yl]-6-methoxy-benzamide]
7 | 100 to 500 nM | COc1cc(-c2cnc3cc(OCCN4CC(F)(F)C4)ccn23)cc2c1C(=O)N(CC(F)(F)F)CC2 [Cpd 244, 6-[7-[2-(3,3-difluoroazetidin-1-yl)ethoxy]imidazo[1,2-a]pyridin-3-yl]-8-methoxy-2-(2,2,2-trifluoroethyl)-3,4-dihydroisoquinolin-1-one]
8 | 10 to 100 nM | COc1cc(-c2cnc3cc(OCCCN4CCC5(CC4)CNC(=O)O5)ccn23)cc(OC(F)F)c1C(=O)NC1CC1 [Cpd 324, N-cyclopropyl-2-(difluoromethoxy)-6-methoxy-4-[7-[3-(2-oxo-1-oxa-3,8-diazaspiro[4.5]decan-8-yl)propoxy]imidazo[1,2-a]pyridin-3-yl]benzamide]
9 | 10 to 100 nM | COc1cc(-c2cnc3cc(OCCCN4CCS(=O)(=O)CC4)ccn23)cc(OC(F)F)c1C(=O)NC1CC1 [Cpd 331, N-cyclopropyl-2-(difluoromethoxy)-4-[7-[3-(1,1-dioxo-1,4-thiazinan-4-yl)propoxy]imidazo[1,2-a]pyridin-3-yl]-6-methoxy-benzamide]
10 | 10 to 100 nM | CCOC(=O)C1(F)CCN(CCCOc2ccn3c(-c4cc(OC)c(C(=O)NC5CC5)c(OC(F)F)c4)cnc3c2)CC1 [Cpd 363, ethyl 1-[3-[3-[4-(cyclopropylcarbamoyl)-3-(difluoromethoxy)-5-methoxy-phenyl]imidazo[1,2-a]pyridin-7-yl]oxypropyl]-4-fluoro-piperidine-4-carboxylate]
11 | 10 to 100 nM | COc1cc(-c2cnc3cc(OCCN4CCN(C)CC4)ccn23)cc(OC(F)F)c1C(=O)NC1CC1 [compound 9, N-cyclopropyl-2-(difluoromethoxy)-6-methoxy-4-[7-[2-(4-methylpiperazin-1-yl)ethoxy]imidazo[1,2-a]pyridin-3-yl]benzamide]
12 | 10 to 100 nM | COc1cc(-c2cnc3cc(OC[C@H]4COCCO4)ccn23)cc2c1C(=O)NCC2 [compound 242, 6-[7-[[(2R)-1,4-dioxan-2-yl]methoxy]imidazo[1,2-a]pyridin-3-yl]-8-methoxy-3,4-dihydro-2H-isoquinolin-1-one]
13 | 100 to 500 nM | COc1cc(-c2cnc3cc(OCC4(F)CN(C(=O)OC(C)(C)C)C4)ccn23)cc2c1C(=O)N(CC(F)(F)F)CC2 [compound 248, tert-butyl 3-fluoro-3-[[3-[8-methoxy-1-oxo-2-(2,2,2-trifluoroethyl)-3,4-dihydroisoquinolin-6-yl]imidazo[1,2-a]pyridin-7-yl]oxymethyl]azetidine-1-carboxylate]
14 | 100 to 500 nM | COc1cc(-c2cnc3cc(OCCN4CCOC[C@H]4C)ccn23)cc2c1C(=O)N(CC(F)(F)F)CC2 [compound 259, 8-methoxy-6-[7-[2-[(3R)-3-methylmorpholin-4-yl]ethoxy]imidazo[1,2-a]pyridin-3-yl]-2-(2,2,2-trifluoroethyl)-3,4-dihydroisoquinolin-1-one]
15 | 10 to 100 nM | COc1cc(-c2cnc3cc(OCCCN4CC5(COC5)C4)ccn23)cc(OC(F)F)c1C(=O)NC1CC1 [compound 273, N-cyclopropyl-2-(difluoromethoxy)-6-methoxy-4-[7-[3-(2-oxa-6-azaspiro[3.3]heptan-6-yl)propoxy]imidazo[1,2-a]pyridin-3-yl]benzamide]
16 | 0.01 to 10 nM | COc1cc(-c2cnc3cc(OCCCN4CCC4)ccn23)cc(OC(F)F)c1C(=O)NC1CC1 [compound 274, 4-[7-[3-(azetidin-1-yl)propoxy]imidazo[1,2-a]pyridin-3-yl]-N-cyclopropyl-2-(difluoromethoxy)-6-methoxy-benzamide]
17 | 10 to 100 nM | COc1cc(-c2cnc3cc(OCCCN4CCCC4)ccn23)cc(OC(F)F)c1C(=O)NC1CC1 [compound 275, N-cyclopropyl-2-(difluoromethoxy)-6-methoxy-4-[7-(3-pyrrolidin-1-ylpropoxy)imidazo[1,2-a]pyridin-3-yl]benzamide]
18 | 10 to 100 nM | COc1cc(-c2cnc3cc(OCCN4CCN(C(C)C)CC4)ccn23)cc(OC(F)F)c1C(=O)NC1CC1 [compound 276, N-cyclopropyl-2-(difluoromethoxy)-4-[7-[2-(4-isopropylpiperazin-1-yl)ethoxy]imidazo[1,2-a]pyridin-3-yl]-6-methoxy-benzamide]
19 | 10 to 100 nM | COc1cc(-c2cnc3cc(OCCOCCN4CCCCC4)ccn23)cc(OC(F)F)c1C(=O)NC1CC1 [compound 305]
20 | 10 to 100 nM | COc1cc(-c2cnc3cc(OCCCN4CCC5(CC4)CN(C)C(=O)O5)ccn23)cc(OC(F)F)c1C(=O)NC1CC1 [compound 325, N-cyclopropyl-2-(difluoromethoxy)-6-methoxy-4-[7-[3-(3-methyl-2-oxo-1-oxa-3,8-diazaspiro[4.5]decan-8-yl)propoxy]imidazo[1,2-a]pyridin-3-yl]benzamide]
21 | 10 to 100 nM | CCOC(=O)C1(F)CCN(CCOc2ccn3c(-c4cc(OC)c(C(=O)NC5CC5)c(OC(F)F)c4)cnc3c2)CC1 [compound 390, ethyl 1-[2-[3-[4-(cyclopropylcarbamoyl)-3-(difluoromethoxy)-5-methoxy-phenyl]imidazo[1,2-a]pyridin-7-yl]oxyethyl]-4-fluoro-piperidine-4-carboxylate]

Row | SMILES | IC50
22 | COc1cc(-c2cnc3cc(OCCN4C5CCC4COC5)ccn23)cc(OC(F)F)c1C(=O)NC1CC1 [compound 193, N-cyclopropyl-2-(difluoromethoxy)-6-methoxy-4-[7-[2-(3-oxa-8-azabicyclo [3.2.1]octan-8-yl)ethoxy]imidazo[1,2-a]pyridin-3-yl]benzamide] | 10 to 100 nM

System: LPS triggered IL-10 secretion in monocyte-derived macrophages (MdM)
Assay: MdM assay: LPS-triggered IL-10 (ELISA)
Type: cell-based, human
Conditions: LPS 200 ng/mL, supernatant after 2 h, maximal fold change vs LPS only
Protocol: SIK inhibition inhibits TNFα and increases IL-10 release in LPS triggered monocyte-derived macrophages (MdM) and dendritic […] al. 2012; Sundberg et al. 2014; Ozanne et al. 2015). This assay evaluates illustrative compounds of the invention for their inhibition of LPS-induced TNFα and LPS triggered IL-10 secretion in monocyte-derived macrophages. PBMCs are isolated from human blood samples (buffycoats). The buffy coat is aseptically transferred into a 50 mL Falcon tube, and diluted 1/2 in PBS. Falcon tubes are filled with 20 mL LymphoprepTM, on top of which 25 mL of the buffy coat is carefully added, tubes are centrifuged for 35 min at 400 g in temperature controlled centrifuge, without brake, at 25° C. PBMCs are aspirated from the white interface layer between sample and LymphoprepTM. PBMCs are washed five times in PBS. Cells are resuspended in RPMI 1640 complete medium supplemented with 10% FBS, 1% P/S, and cell density is determined using a hematologic analyzer (Sysmex XS-500i). PBMCs are centrifuged at 300×g for 10 min and resuspended at a density of 1.0*10^7 cells/80 μL Miltenyi buffer (PBS, pH 7.4, 1% FBS, 2 mM EDTA). Starting from this point of the protocol all steps are performed on ice. 20 μL of CD14+ micro-beads are added per 1.0*10^7 cells, the tube is mixed and incubated for 15 min in the fridge at 4° C. Cell suspension volume is adjusted to total volume of 100 mL using Miltenyi buffer, mixed gently and subsequently centrifuged for 10 min at 300×g. Supernantant is discarded and cell pellet is resuspended in 12 mL of Miltenyi buffer. Four LS columns are placed in the MACS Separator (magnet) from Miltenyi Biotec, and are prewet by rinsing with 3 mL of MACS buffer per column. Three mL of cell suspension is added onto the column (max 1*10^8 of labelled cells/column), and columns are subsequently washed 3 times with 3 mL of Miltenyi buffer. The columns are removed from the magnets, and 5 mL of Miltenyi buffer are added to the column to flush out the CD14+ fraction by pushing the plunger into the column. The flushed fractions are collected in a fresh 50 mL Falcon and volume is adjusted to 30 mL using Miltenyi buffer, cells are centrifuged for 10 min at 300×g. The obtained cell pellet is resuspended in 10 mL RPMI w/o FBS, and cell density is determined using a hematologic analyser (Sysmex XS-500i). 100 000 cells are seeded per well of a 96-well plate for differentiation to MdM in RPMI 1640 medium supplemented with 10% FBS, 1% P/S and 100 ng/mL rhM-CSF. On day 5 the medium is refreshed with 100 μL RPMI 1640 medium supplemented with 10% FBS, 1% P/S and 100 ng/mL rhM-CSF. On day 10, MdMs are triggered and compound is added. A compound dilution plate is made in 100% DMSO by 3-fold dilution of 10 mM stock solution. An intermediate dilution plate (10× final concentration) is made by diluting the compound dilution plate 50-fold in RPMI medium. Medium is carefully removed from cell plates using multichannel pipette, and replaced by 80 μL fresh medium. 10 μL of the 10× final concentration compound is added to the cells and incubated for 1 hour at 37° C. before addition of trigger. No trigger conditions/trigger conditions are spiked with equal final DMSO concentrations of 0.2% DMSO. 10 μL of 10×LPS (final conc. 200 ng/mL) solution are added to all wells except for the 'no trigger wells' where 10 μL medium is added. Supernatant is collected after 2 h (IL-10 determination) and after 20 h (TNFα determination) of LPS triggering. […]

Row | SMILES | IL-10 FCmax median
23 | COc1cc(-c2cnc3cc(OCCN(C)C)ccn23)cc(OC(F)F)c1C(=O)NC1CC1 [Cpd 6, N-cyclopropyl-2-(difluoromethoxy)-4-[7-[2-(dimethylamino)ethoxy]imidazo[1,2-a]pyridin-3-yl]-6-methoxy-benzamide] | ++ (>1.5-4.5)
24 | COc1cc(-c2cnc3cc(OCCCN(C)C)ccn23)cc(OC(F)F)c1C(=O)NC1CC1 [Cpd 13] | ++ (>1.5-4.5)
25 | COc1cc(-c2cnc3cc(OCC4CN(C)C4)ccn23)cc(OC(F)F)c1C(=O)NC1CC1 [Cpd 14, N-cyclopropyl-2-(difluoromethoxy)-6-methoxy-4-[7-[(1-methylazetidin-3-yl)methoxy]imidazo[1,2-a]pyridin-3-yl]benzamide] | ++ (>1.5-4.5)
26 | COc1cc(-c2cnc3cc(OCCN4CCOCC4)ccn23)cc2c1C(=O)N(CC(F)(F)F)CC2 [Cpd 88, 8-methoxy-6-[7-(2-morpholinoethoxy)imidazo [1,2-a]pyridin-3-yl]-2-(2,2,2-trifluoroethyl)-3,4-dihydroisoquinolin-1-one] | ++ (>1.5-4.5)
